This note sets out measurements from ChEMBL document CHEMBL4002612, “Study of antileishmanial activity of 2-aminobenzoyl amino acid hydrazides and their quinazoline derivatives” (Bioorg Med Chem Lett, 2017).

In general, IC50 refers to the concentration needed to halve the response being measured.

The test system of data set [1] is Leishmania aethiopica. Nature of the data set: Antileishmanial activity against promastigote stage of Leishmania aethiopica assessed as parasite growth inhibition after 24 hrs by Alamar blue assay. The class given is functional.
Data set [2] has as its system Leishmania aethiopica. Nature of the data set: Potency index, ratio of mitefosine IC50 to test compound IC50 for promastigote stage of Leishmania aethiopica. The class given is functional.
For data set [3], the system named is Mus musculus. Nature of the data set: Acute toxicity in mouse assessed as change in kidney texture at 250 mg/kg/day administered as single dose via oral gavage by microscopic method. The class given is organism-based. Conditions: in vivo.
Data set [4] concerns Mus musculus. The data set is described as follows: Acute toxicity in mouse assessed as change in body weight at 25 to 250 mg/kg/day administered as single dose via oral gavage measured after 3 days. The class given is organism-based. The following applies: in vivo, 72 h.
For data set [5], the system named is Mus musculus. The data set is described as follows: Acute toxicity in mouse assessed as change in spleen texture at 250 mg/kg/day administered as single dose via oral gavage by microscopic method. Type of data set: organism-based. Conditions: in vivo.
For data set [6], the system named is Mus musculus. The data set is described as follows: Acute toxicity in mouse assessed as change in spleen texture at 100 mg/kg, ip by microscopic method. The class given is organism-based. Conditions: in vivo.
For data set [7], the system named is Mus musculus. Nature of the data set: Acute toxicity in mouse assessed as change in liver texture at 100 mg/kg, ip by microscopic method. The class given is organism-based. Conditions: in vivo.
For data set [8], the system named is Mus musculus. The data set is described as follows: Acute toxicity in mouse assessed as mortality at 25 to 250 mg/kg/day administered as single dose via oral gavage measured after 3 days. Conditions: in vivo, 72 h. The class given is organism-based.
The test system of data set [9] is Mus musculus. The data set is described as follows: Acute toxicity in mouse assessed as change in liver texture at 250 mg/kg/day administered as single dose via oral gavage by microscopic method. Conditions: in vivo. Type of data set: organism-based.
Data set [10] concerns Mus musculus. The data set is described as follows: Acute toxicity in mouse assessed as mortality up to 100 mg/kg, ip after 7 days. Conditions: in vivo, 168 h. The class given is organism-based.
The test system of data set [11] is Mus musculus. Nature of the data set: Acute toxicity in mouse assessed as change in kidney texture at 100 mg/kg, ip by microscopic method. The class given is organism-based. Conditions: in vivo.

Take `COC(=O)C(C)NC(=O)c1ccccc1N` (centres undefined): the IC50 in the data set with Leishmania aethiopica [1] was 23 µM.
For the compound `NNC(=O)CCCCCNC(=O)c1ccccc1N`, in the data set on Leishmania aethiopica [2], the “Ratio IC50” value was determined as 154. In the data set with Leishmania aethiopica [1], the IC50 was 0.051 µM. Moreover, the Activity entry in the data set on Mus musculus [3], with Mus musculus [4], in the data set on Mus musculus [5], with Mus musculus [6], in the data set with Mus musculus [7] and in the data set with Mus musculus [8] was “Non-Toxic” throughout. Also, the Activity entry in the data set with Mus musculus [9], with Mus musculus [10] and in the data set on Mus musculus [11] was “Non-Toxic” throughout.
Turning to `CC(NC(=O)c1ccccc1N)C(=O)NN` (centres undefined), in the data set with Leishmania aethiopica [1], the IC50 stood at 0.185 µM. Also, the Activity entry in the data set on Mus musculus [3], in the data set with Mus musculus [4], with Mus musculus [5], in the data set on Mus musculus [6], in the data set on Mus musculus [7] and in the data set with Mus musculus [8] was “Non-Toxic” in each case. Further, the Activity entry in the data set with Mus musculus [9], in the data set on Mus musculus [10] and in the data set on Mus musculus [11] was “Non-Toxic” throughout.
As for `O=C(CN1C(=O)c2ccccc2NC1c1ccc2c(c1)OCO2)N/N=C/c1ccc2c(c1)OCO2` (centres undefined), the concentration for half-maximal inhibition (IC50) in the data set with Leishmania aethiopica [1] stood at 12 µM.
With `COc1ccc(/C=N/NC(=O)CN2C(=O)c3ccccc3NC2c2ccc(OC)cc2)cc1` (centres undefined), the IC50 with Leishmania aethiopica [1] came out at 9.07 µM.
On the same count and under the same terms, then `COC(=O)CCCNC(=O)c1ccccc1N`, with 17.3 µM.
As to `NNC(=O)CNC(=O)c1ccccc1N`, the IC50 in the data set with Leishmania aethiopica [1] was 0.127 µM. Also, the Activity entry in the data set with Mus musculus [3], in the data set with Mus musculus [4], with Mus musculus [5], in the data set with Mus musculus [6], with Mus musculus [7] and in the data set on Mus musculus [8] was “Non-Toxic” each time. Besides, the Activity entry in the data set on Mus musculus [9], with Mus musculus [10] and in the data set with Mus musculus [11] was “Non-Toxic” each time.
Regarding `O=C(CCNC(=O)c1ccccc1/N=C/c1ccc(Cl)cc1)N/N=C/c1ccc(Cl)cc1`, the IC50 in the data set on Leishmania aethiopica [1] came to 4.34 µM.
On to `O=C(CCCCCN1C(=O)c2ccccc2NC1c1ccco1)N/N=C/c1ccco1` (centres undefined), for which, in the data set on Leishmania aethiopica [1], the IC50 turned out to be 11.1 µM.
In the case of `COC(=O)CCCCCNC(=O)c1ccccc1N`, the IC50 in the data set with Leishmania aethiopica [1] came to 21.3 µM.
Consider `NNC(=O)C(Cc1ccccc1)NC(=O)c1ccccc1N` (centres undefined), for which the IC50 with Leishmania aethiopica [1] was found to be 2.9 µM.
Same read-out and setting: under `O=C(CCCN1C(=O)c2ccccc2NC1c1ccco1)N/N=C/c1ccco1` (centres undefined) stands 10.4 µM.
As to `COC(=O)CNC(=O)c1ccccc1N`, the IC50 in the data set on Leishmania aethiopica [1] is 29.2 µM.
With `O=C(N/N=C/c1ccc(Cl)cc1)C(Cc1ccccc1)N1C(=O)c2ccccc2NC1c1ccc(Cl)cc1` (centres undefined), the IC50 with Leishmania aethiopica [1] amounted to 10.1 µM.
Same read-out and setting: under `COC(=O)C(Cc1ccccc1)NC(=O)c1ccccc1N` (centres undefined) stands 15.6 µM.
Same read-out and setting: under `O=C(CCCCCN1C(=O)c2ccccc2NC1c1ccc2c(c1)OCO2)N/N=C/c1ccc2c(c1)OCO2` (centres undefined) stands 9.33 µM; under `O=C(N/N=C/c1ccco1)C(Cc1ccccc1)N1C(=O)c2ccccc2NC1c1ccco1` (centres undefined), 9.05 µM.
Consider `O=C(CNC(=O)c1ccccc1/N=C/c1ccc(Cl)cc1)N/N=C\c1ccc(Cl)cc1`, for which, in the data set on Leishmania aethiopica [1], the IC50 was 0.052 µM. The Activity entry in the data set with Mus musculus [3], in the data set on Mus musculus [4], in the data set on Mus musculus [5], with Mus musculus [6], in the data set on Mus musculus [7] and with Mus musculus [8] was “Non-Toxic” in each case. The Activity result in the data set on Mus musculus [9], in the data set on Mus musculus [10] and with Mus musculus [11] was “Non-Toxic” in each case.
On to `O=C(CCN1C(=O)c2ccccc2NC1c1ccccc1)N/N=C/c1ccccc1` (centres undefined), for which the concentration for half-maximal inhibition (IC50) with Leishmania aethiopica [1] is 12.6 µM.
As to `COC(=O)CCNC(=O)c1ccccc1N`, the IC50 in the data set with Leishmania aethiopica [1] was found to be 26.4 µM.
For the compound `CC(C(=O)N/N=C/c1ccco1)N1C(=O)c2ccccc2NC1c1ccco1` (centres undefined), in the data set on Leishmania aethiopica [1], the IC50 was 10.7 µM.
Still for that read-out and setting: under `C[C@@H]1[C@H](O)[C@@H](C)/C=C/C=C/C=C/C=C/C=C/C=C/C=C/[C@H](O[C@@H]2O[C@H](C)[C@@H](O)[C@H](N)[C@@H]2O)C[C@@H]2O[C@](O)(C[C@@H](O)C[C@@H](O)[C@H](O)CC[C@@H](O)C[C@@H](O)CC(=O)O[C@H]1C)C[C@H](O)[C@H]2C(=O)O.C[C@H](CCC(=O)O)[C@H]1CC[C@H]2[C@@H]3CC[C@@H]4C[C@H](O)CC[C@]4(C)[C@H]3C[C@H](O)[C@]12C` stands 0.035 µM.
